Reference: patent US20230241226A1, “COMPOUNDS FOR TARGETED DEGRADATION OF CARRIER PROTEINS AND USES THEREOF” (CeMM - Forschungszentrum für Molekulare Medizin GmbH, priority 2019, published 2023)

How the values were obtained:
dTAG-HA SLCs = test: dTAG-driven SLC degradation, statements across SLCs (temporal control, chemical rescue); assay type: cell-based, human; conditions: dTAG-tagged SLCs; FIGS. 5E and F
Description: (D)Chemical “rescue” of dTAG-driven degradation of SLCs. HAP1 cell lines expressing dTAG-HA SLC1A5 or dTAG-HA SLC38A9 were treated with 0.5 µM dTAG7 for 12 or 18 hours, respectively. These cells were also treated with chloroquine (CQ, 50 µM), bortezomib (bort., 1 µM), MG-132 (MG, 1 µM), MLN4924 (MLN, 1 µM), pomalidomide (poma., 10 µM), or bafilomycin A1 (bafi., 2.5 µM). SLC degradation was rescued by inhibiting CRL activity or the proteasome, but not by inhibiting the lysosome machinery.
Western blotting with antibodies against the HA-tag and the total protein mirrored the observed pattern.
(D) Chemical “rescue” of dTAG driven degradation. HAP1 cell lines expressing dTAGHA SLC2A3, 39A7, […], and MTCH2 were treated with 0.5 µM dTAG7 for 12 hours. A cell line expressing dTAG-HA SLC38A2 was treated with 0.5 µM dTAG7 for 18 hours. These cells were treated with MLN4924 (MLN, 1 µM), pomalidomide (poma., 10 µM), or bafilomycin A1 (bafi., 2.5 µM) to monitor the inhibition of degradation.
For immunoblotting, whole cell extracts were prepared using RIPA lysis buffer (25 mM Tris/HCl pH 7.6, 150 mM NaCl, 1% NP-40, 1% sodium deoxycholate, 0.1% SDS, EDTA-free protease inhibitor (Roche) and phosphatase inhibitors 2+3 (Sigma- Aldrich)). Cell extracts were incubated for 15 min on ice in 50 µL RIPA buffer. Lysates were cleared by centrifugation (20,000 g, 10 min, 4° C.). Protein extracts were quantified and normalized using the BCA assay (Thermo Scientific). Where indicated, cleared lysates where treated with the enzyme PNGase (NEB) to deglycosylate the proteins. Lämmli Sample Buffer 4x was added to protein extract samples without boiling. Cell lysates were run on SDS-polyacrylamide gel in tris-glycine running buffer and transferred to nitrocellulose membranes Amersham Protran 0.45 µm (GE Healthcare), according to standard methods. The membranes were incubated with the antibodies indicated below and visualized with horseradish peroxidase-conjugated secondary antibodies (described below) using the ECL Western blotting system (Thermo Scientific). The following antibodies were used: GAPDH (Santa Cruz, sc-365062), Actin (Cyoskeleton Inc., #AAN01), HA (Covance, cat #MMS-101R), HA (Cell Signaling, #3724), HA7-HRP (Sigma, H6533), HA (Roche, #11867423001), SLC9A1 (Santa Cruz, sc-136239), SLC2A1 (Cell Signaling, #12939), SLC38A1 (Cell Signaling, #36057). Secondary antibody for imaging goat anti-Rat IgG Alexa Fluor 488 (ThermoFisher, A11006). The following secondary antibodies were used for immunoblotting: goat anti-mouse HRP (115-035-003, Jackson ImmunoResearch) and goat anti-rabbit HRP (111-035-003, Jackson ImmunoResearch).
SLCs were ectopically expressed as fusions to a mutated FKBP domain, also known as the dTAG system. In brief, a dTAGed protein is amenable to degradation by specific chimeric degrader molecules (e.g. dTAG7/dTAG13) that simultaneously bind to the dTAG and the CRL4CRBN E3 ligase, inducing molecular proximity and ensuing degradation by the proteasome. Given that SLCs were expressed in all cellular compartments, the amenability of differentially located SLCs to targeted proteolysis was tested (FIG. 1A, upper graph). Each of the tested SLCs was stably expressed in HAP1 cells, and subcellular localization was assessed by immunofluorescence microscopy (FIG. 1B). In detail, SLCs located at the cell surface (SLC1A5, SLC38A1, SLC2A1, SLC2A3, SLC16A1, SLC4A4, SLC7A3), cell surface and vesicles (SLC38A2), lysosome (SLC38A9), Golgi (SLC35B2, SLC33A1), mitochondria (SLC25A26, SLC25A1, and MTCH2) and endoplasmic reticulum (SLC39A7, SLC30A9) were assayed. Cellular treatment with a specific degrader molecule (dTAG7 or dTAG13) led to identification of SLCs expressed at cell surface, endoplasmic reticulum and lysosome that were amenable to targeted degradation (FIGS. 1C, 5A). The dTAG could be placed on either N- or C-terminus of the SLC, if both face the cytoplasm (FIG. 5B), as exemplified by SLC2A3. […]

dTAG-HA SLC1A5 = biological target: T1, dTAG-HA SLC1A5 (Homo sapiens, UniProt Q15758+Q96SW2); test: Targeted degradation of dTAG-tagged SLC1A5 (western blot); assay type: cell-based; conditions: 0.5 µM
T1 construct: expressed in transfected cells; also LOVO, SW620, CAKI, SW480
Description: (C)HAP1 cells expressing dTAG-HA SLC1A5, 2A3, 30A9, 35B2, MTCH2, and 33A1 were treated for 24 hours with 0.5 µM of dTAG7 or dTAG13, as indicated. HAP1 cells expressing dTAG-HA SLC2A1 and 16A1 were treated for 24 hrs with 0.5 µM of dTAG7. HAP1 cell lines expressing dTAG-HA SLC39A7, dTAG-HA SLC4A4, and SLC7A3-dTAG-HA were treated for 48 hrs with 0.5 µM of dTAG13.
SLC1A5, SLC2A1, SLC2A3, SLC16A1, SLC38A1, SLC38A2 were obtained as gateway-compatible pENTR/pDONR vectors from the Harvard PlasmID Repository. SLC39A7 was obtained from Dharmacon, GE Healthcare. The following vectors were synthesized by Genescript: SLC4A4, SLC7A3, SLC38A9, SLC25A1, SLC9A1, SLC9A2, SLC9A3, SLC9A4, SLC9A5, SLC9A6, SLC9A7, SLC9A8, and SLC9B2. […]
For immunoblotting, whole cell extracts were prepared using RIPA lysis buffer (25 mM Tris/HCl pH 7.6, 150 mM NaCl, 1% NP-40, 1% sodium deoxycholate, 0.1% SDS, EDTA-free protease inhibitor (Roche) and phosphatase inhibitors 2+3 (Sigma- Aldrich)). […] Protein extracts were quantified and normalized using the BCA assay (Thermo Scientific). […]
SLCs were ectopically expressed as fusions to a mutated FKBP domain, also known as the dTAG system. […]

T1 sequence (Q15758 with tags, fused parts or gaps): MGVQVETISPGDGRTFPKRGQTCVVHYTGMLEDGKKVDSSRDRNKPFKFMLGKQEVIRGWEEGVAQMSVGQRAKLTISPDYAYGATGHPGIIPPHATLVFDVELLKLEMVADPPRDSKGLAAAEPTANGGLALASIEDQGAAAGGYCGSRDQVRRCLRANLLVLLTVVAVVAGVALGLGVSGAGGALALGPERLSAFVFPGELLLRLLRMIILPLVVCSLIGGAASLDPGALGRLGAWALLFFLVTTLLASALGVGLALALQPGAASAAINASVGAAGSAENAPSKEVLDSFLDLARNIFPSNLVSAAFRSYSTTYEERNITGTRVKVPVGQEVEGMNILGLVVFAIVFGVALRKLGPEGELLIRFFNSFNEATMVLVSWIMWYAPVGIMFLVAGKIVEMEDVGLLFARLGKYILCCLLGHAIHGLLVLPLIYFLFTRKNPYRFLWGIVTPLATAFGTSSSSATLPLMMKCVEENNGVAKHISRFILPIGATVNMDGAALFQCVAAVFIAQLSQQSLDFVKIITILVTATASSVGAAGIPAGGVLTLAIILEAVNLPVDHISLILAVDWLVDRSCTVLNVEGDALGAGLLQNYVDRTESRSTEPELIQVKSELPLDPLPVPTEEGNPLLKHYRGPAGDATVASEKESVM
T1 sequence (Q96SW2 whole entry): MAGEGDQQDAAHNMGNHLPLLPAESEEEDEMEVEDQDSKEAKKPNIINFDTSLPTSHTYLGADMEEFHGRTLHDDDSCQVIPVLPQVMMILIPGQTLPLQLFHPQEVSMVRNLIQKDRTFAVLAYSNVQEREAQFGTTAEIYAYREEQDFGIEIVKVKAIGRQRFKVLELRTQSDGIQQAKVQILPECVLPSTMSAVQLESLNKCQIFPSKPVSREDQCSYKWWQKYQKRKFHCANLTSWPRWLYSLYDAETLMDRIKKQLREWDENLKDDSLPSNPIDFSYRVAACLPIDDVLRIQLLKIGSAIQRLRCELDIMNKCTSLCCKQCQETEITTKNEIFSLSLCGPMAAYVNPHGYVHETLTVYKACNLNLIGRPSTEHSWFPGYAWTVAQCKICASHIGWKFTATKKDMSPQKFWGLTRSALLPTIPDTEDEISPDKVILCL
T1 sequence (Q16531 whole entry partner): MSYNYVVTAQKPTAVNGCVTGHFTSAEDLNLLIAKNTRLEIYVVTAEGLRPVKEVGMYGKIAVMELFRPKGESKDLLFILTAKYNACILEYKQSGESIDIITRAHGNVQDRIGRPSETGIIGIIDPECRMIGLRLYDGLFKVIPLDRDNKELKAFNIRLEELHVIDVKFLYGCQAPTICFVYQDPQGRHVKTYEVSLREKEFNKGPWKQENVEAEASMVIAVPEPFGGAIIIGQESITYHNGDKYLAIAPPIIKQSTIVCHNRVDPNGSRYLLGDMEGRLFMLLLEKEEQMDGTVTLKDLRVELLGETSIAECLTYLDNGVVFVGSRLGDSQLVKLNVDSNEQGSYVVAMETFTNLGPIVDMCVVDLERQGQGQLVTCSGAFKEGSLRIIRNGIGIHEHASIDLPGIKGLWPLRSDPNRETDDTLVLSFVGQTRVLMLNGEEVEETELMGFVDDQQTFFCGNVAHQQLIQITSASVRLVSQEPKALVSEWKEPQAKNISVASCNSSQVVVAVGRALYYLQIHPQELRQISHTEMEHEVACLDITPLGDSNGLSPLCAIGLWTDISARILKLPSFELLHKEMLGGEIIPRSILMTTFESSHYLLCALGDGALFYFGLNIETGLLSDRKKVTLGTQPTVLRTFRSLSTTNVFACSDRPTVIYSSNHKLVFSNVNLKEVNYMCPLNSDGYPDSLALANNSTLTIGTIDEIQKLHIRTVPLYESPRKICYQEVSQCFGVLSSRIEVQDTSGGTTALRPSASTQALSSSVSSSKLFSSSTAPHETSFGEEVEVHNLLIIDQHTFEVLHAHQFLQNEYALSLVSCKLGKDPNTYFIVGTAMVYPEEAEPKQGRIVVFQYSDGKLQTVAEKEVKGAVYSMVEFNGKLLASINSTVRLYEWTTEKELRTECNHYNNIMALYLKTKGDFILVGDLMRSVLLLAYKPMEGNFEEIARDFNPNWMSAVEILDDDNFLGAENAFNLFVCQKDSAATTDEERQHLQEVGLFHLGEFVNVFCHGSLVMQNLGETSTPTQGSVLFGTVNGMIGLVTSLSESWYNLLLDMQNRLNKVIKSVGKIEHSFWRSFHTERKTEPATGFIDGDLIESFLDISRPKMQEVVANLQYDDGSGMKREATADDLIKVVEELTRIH

With `CC[C@H](C(=O)N1CCCC[C@H]1C(=O)O[C@H](CCc1ccc(OC)c(OC)c1)c1ccccc1OCC(=O)NCCCCCCOc1cccc2c1C(=O)N(C1CCC(=O)NC1=O)C2=O)c1cc(OC)c(OC)c(OC)c1` (stereo partly shown) [dTAG13] the “time for which target degradation is maintained” value (dTAG-HA SLCs) was “at least 72 h” and the “degradation of dTAG-HA SLC1A5” value (dTAG-HA SLC1A5; LOVO, SW620, CAKI and SW480 cell lines, 48 hours) was “degradation was observed”.

For `CC[C@H](C(=O)N1CCCC[C@H]1C(=O)O[C@H](CCc1ccc(OC)c(OC)c1)c1ccccc1OCC(=O)NCCCOCCOCCOCCCNC(=O)COc1cccc2c1C(=O)N(C1CCC(=O)NC1=O)C2=O)c1cc(OC)c(OC)c(OC)c1` (stereo partly shown) [dTAG7], the “temporal control of targeted SLC degradation” value (dTAG-HA SLCs) was “reversible degradation” and the “initiation of degradation (time course)” value (dTAG-HA SLC1A5; HAP1, dTAG-HA SLC1A5) was no more than 6 h.
